Source: US5026726A, “Gossylic iminolactones and gossylic lactones and their anti-viral activities” (The University of New Mexico, priority 1989, dated 1991)
pEC50: −log10 of the molar value.

Columns and labels:
[1] = tested on: HIV-1 virus (HIV-infected MT4 cells); experiment: Anti-HIV-1 activity in infected MT4 cells (% IFA positive cells, 6 days); assay type: cell-based, human immunodeficiency virus (HIV-1), LAV-A isolate
Method: (§1) The above % IFA positive cells were determined 6 days after addition of HIV-1 virus. Cell viability is % viable cells relative to mock-treated cells or controls. FIGS. 1-A through D show one of many representative set of data.
An LAV-A isolate of human immunodeficiency virus (HIV-1) was used in this study. LAV-A was originally isolated by Dr. L. Montagnier, Pasteur Institute, Paris, and was obtained from Dr. T. Folks, NIAID.
MT4 cells, 10^7 cells/ml, were infected for 1 hour at 4° C., with stock HIV-1 virus, 0.5 ml stock/10^7 cells.
(§2) The infected cells were then resuspended in a complete medium (RPMI 1640 with 20% FBS, L-glutamine, 2 mM, penicillin, 100 units/ml, and streptomycin, 100 ug/ml). Aliquots were added to 24-well tissue culture plates containing varying concentrations of Compounds I, II, III and IV in complete media. The final cell concentration was 1.5×10^5 cells/ml.
(§3) Positive control wells received no drug. Negative control wells received mock-treated MT4 cells. Cells were incubated at 37° C. in 5% CO2. Media was changed after 3 days with fresh complete media containing the appropriate drug.
The percent HIV-1 viral infection was determined by an immunofluorescence assay (IFA) using heat-inactivated, pooled human anti-sera from HIV-positive patients as the first antibody and goat anti-human IgG conjugated with FITC as the second antibody. This is a standard immunoassay known in the art.
Slides were counterstained with Evans blue to obtain total cell counts from the same slides as is known in the art. Uninfected cells were consistently negative for fluorescence.

[2] = Cytotoxicity to MT4 cells (trypan blue exclusion); assay type: cell-based; conditions: human, mt4 cells; for MCC at 144 h: read-out: concentration at which toxicity to the host cell was shown
Method: as §1, §2, §3
(§4) After 6 days, the viability of the MT4 cells, control or infected, was determined by trypan blue exclusion, which is a standard procedure to determine cell viability.

[3] = tested on: herpes simplex virus type II; conditions: literature; cited from earlier work
[4] = tested on: herpes simplex viruses; conditions: literature; cited from earlier work
[5] = tested on: Trypanosoma cruzi; conditions: literature; cited from earlier work
[6] = tested on: parainfluenza type 3; conditions: literature; cited from earlier work
[7] = tested on: MT4 cells; experiment: Cytotoxicity to MT4 cells (trypan blue exclusion); assay type: cell-based; conditions: for toxicity to the host cell: MT4 cells
Method: as §1, §2, §3, §4

[8] = tested on: billirubin binding site of the protein albumin; conditions: literature; cited from earlier work
[9] = tested on: Plasmodium falcicarum; conditions: literature; cited from earlier work
[10] = literature; cited from earlier work
[11] = tested on: HIV virus; conditions: after prolonged exposure, literature; cited from earlier work
[12] = tested on: reverse transcriptase (RT); conditions: literature; cited from earlier work

SMILES: CC(=O)Oc1c(-c2c(C)cc3c(C(C)C)c(O)c(O)c(C#N)c3c2OC(C)=O)c(C)cc2c(C(C)C)c(O)c(O)c(C#N)c12 [Compound II, Gossylic nitrile-1,1'-diacetate]
- inhibition at 50 µM ([1]; Human immunodeficiency virus 1, 144 h, 50 uM, 6 days, read-out: inhibition of virus replication): ~50%
- MCC at 144 h [2]: 250 µM

SMILES: Cc1cc2c(C(C)C)c(O)c(O)c(C=O)c2c(O)c1-c1c(C)cc2c(C(C)C)c(O)c(O)c(C=O)c2c1O [Compound I, gossypol]
- antiviral activity against herpes simplex virus type II [3]: exhibit antiviral activities
- antiviral properties: inactivation of herpes simplex viruses [4]: capable of inactivating
- growth of Trypanosoma cruzi [5]: inhibited
- antiviral properties: inactivation of parainfluenza type 3 [6]: capable of inactivating
- inhibition of virus replication ([1]; 1 uM, 6 days): approximately 50%
- toxicity to the host cell ([7]; 1 uM): significant toxicity to the host cell
- binding to the bilirubin binding site of albumin [8]: bind tightly
- growth of Plasmodium falcicarum [9]: inhibited

SMILES: Cc1cc2c(C(C)C)c(O)c(O)c3c2c(c1-c1c(C)cc2c(C(C)C)c(O)c(O)c4c2c1OC4=N)OC3=N [Compound III, gossylic iminolactone]
- inhibition at 1 µM ([1]; Human immunodeficiency virus 1, 144 h, 1 uM, 6 days, read-out: inhibition of virus replication): ~50%
- pEC50 ([1]; Human immunodeficiency virus 1, 144 h, read-out: ED50 (the source's name)): 6.00
- toxicity to the host cell ([7]; until the drug concentration reached 50 uM): no toxicity to the host cell
- CC50 at 144 h [2]: 25 to 50 µM
- MCC at 144 h [2]: 50 µM

SMILES: Cc1cn([C@H]2C[C@H](N=[N+]=[N-])[C@@H](CO)O2)c(=O)[nH]c1=O [AZT, 3'-azido-2',3'-dideoxythymidine]
- toxicity limiting use in HIV-infected patients [10]: hematologic toxicity limits, and in some cases precludes, the use
- development of HIV resistance [11]: may develop resistance
- inhibition of reverse transcriptase [12]: inhibitor of the enzyme reverse transcriptase

SMILES: Cc1cc2c(C(C)C)c(O)c(O)c3c2c(c1-c1c(C)cc2c(C(C)C)c(O)c(O)c4c2c1OC4=O)OC3=O [Compound IV, gossylic lactone]
- antiviral activity ([1]; below 250 uM): very little antiviral activity
- toxicity to the MT4 cell ([7]; 250 uM): pronounced toxicity
